Measurements: ChEMBL document CHEMBL3885861, “Open TG-GATES”

Organism: Rattus norvegicus
Assay: Open TG-GATES - Regimen: Daily Repeat
Type: toxicity, organism-based, Sprague-Dawley
Design: regimen Daily Repeat, gender Male, age 6 weeks
Conditions: in vivo, po, route gavage; for APTT / Bas / Eos / Fbg / Hb / Ht / Lym / MCH / MCHC / MCV / Mono / Neu / PT / Plat / RBC / Ret / WBC: tissue Blood; for KIDNEY_L / KIDNEY_R / KIDNEY_TOTAL: tissue Kidney; for LIVER: tissue Liver; for A/G / ALP / ALT / AST / BUN / CRE / Ca / Cl / DBIL / GLC / IP / K / LDH / Na / PL / RALB / TBIL / TC / TG / TP / gamma-GTP: tissue Plasma
[1] = 0 mg/kg, 72 h, dose level Control, time 3 day
[2] = 0 mg/kg, […], dose level Control, time 7 day
[3] = 0 mg/kg, […], dose level Control, time 14 day
[4] = 0 mg/kg, […], dose level Control, time 28 day
[5] = 20 mg/kg, 72 h, dose level Low, time 3 day
[6] = 20 mg/kg, […], dose level Low, time 7 day
[7] = 20 mg/kg, […], dose level Low, time 14 day
[8] = 20 mg/kg, […], dose level Low, time 28 day

## Cn1c(=O)c2[nH]cnc2n(C)c1=O.O [THEOPHYLLINE]
[1]
  TERMINAL_BW: 247 g
  APTT: 23.1 s
  Bas: 0%
  Eos: 0.8%
  Fbg: 314.4 mg/dL
  Hb: 13.2 g/dL
  Ht: 39.5%
  Lym: 79.4%
  MCH: 21.2 pg
  MCHC: 33.5%
  MCV: 63.2 fL
  Mono: 3.2%
  Neu: 15.2%
  PT: 15 s
  Plat: 114.7 x10_4/uL
  RBC: 625.4 x10_4/ul
  Ret: 7.3%
  WBC: 109 x10_2/uL
  KIDNEY_L: 1.1 g
  KIDNEY_R: 1.1 g
  KIDNEY_TOTAL: 2.2 g
  LIVER: 12.2 g
  A/G: 1.2
  ALP: 1800.8 IU/L
  ALT: 48.4 IU/L
  AST: 71.4 IU/L
  BUN: 17.6 mg/dL
  CRE: 0.2 mg/dL
  Ca: 10.7 mg/dL
  Cl: 105.8 meq/L
  DBIL: 0 mg/dL
  GLC: 203.8 mg/dL
  IP: 8.5 mg/dL
  K: 4.3 meq/L
  LDH: 183.6 IU/L
  Na: 141 meq/L
  PL: 156.6 mg/dL
  RALB: 3 g/dL
  TBIL: 0 mg/dL
  TC: 85 mg/dL
  TG: 96.2 mg/dL
  TP: 5.5 g/dL
  gamma-GTP: 1.6 IU/L
[2]
  TERMINAL_BW: 278.6 g
  APTT: 21.8 s
  Bas: 0%
  Eos: 1%
  Fbg: 305.4 mg/dL
  Hb: 13.9 g/dL
  Ht: 40.5%
  Lym: 77.8%
  MCH: 20.9 pg
  MCHC: 34.2%
  MCV: 61.2 fL
  Mono: 2.8%
  Neu: 17.4%
  PT: 15.8 s
  Plat: 112 x10_4/uL
  RBC: 662 x10_4/ul
  Ret: 6%
  WBC: 113.8 x10_2/uL
  KIDNEY_L: 1.2 g
  KIDNEY_R: 1.3 g
  KIDNEY_TOTAL: 2.5 g
  LIVER: 12.9 g
  A/G: 1.2
  ALP: 1566.8 IU/L
  ALT: 43.8 IU/L
  AST: 80.4 IU/L
  BUN: 20 mg/dL
  CRE: 0.2 mg/dL
  Ca: 10.3 mg/dL
  Cl: 106.6 meq/L
  DBIL: 0 mg/dL
  GLC: 212.2 mg/dL
  IP: 7.5 mg/dL
  K: 4.6 meq/L
  LDH: 253.2 IU/L
  Na: 141.4 meq/L
  PL: 145.2 mg/dL
  RALB: 3 g/dL
  TBIL: 0 mg/dL
  TC: 69.4 mg/dL
  TG: 106.2 mg/dL
  TP: 5.6 g/dL
  gamma-GTP: 1.8 IU/L
[3]
  TERMINAL_BW: 330.3 g
  APTT: 24.2 s
  Bas: 0%
  Eos: 0.8%
  Fbg: 324.6 mg/dL
  Hb: 14.5 g/dL
  Ht: 42.5%
  Lym: 79.2%
  MCH: 21 pg
  MCHC: 34.1%
  MCV: 61.5 fL
  Mono: 3%
  Neu: 15.2%
  PT: 15.6 s
  Plat: 114.6 x10_4/uL
  RBC: 691.8 x10_4/ul
  Ret: 4.4%
  WBC: 138.2 x10_2/uL
  KIDNEY_L: 1.3 g
  KIDNEY_R: 1.3 g
  KIDNEY_TOTAL: 2.7 g
  LIVER: 15.4 g
  A/G: 1.1
  ALP: 1434.6 IU/L
  ALT: 38.2 IU/L
  AST: 68.4 IU/L
  BUN: 18.6 mg/dL
  CRE: 0.2 mg/dL
  Ca: 10.3 mg/dL
  Cl: 107 meq/L
  DBIL: 0 mg/dL
  GLC: 188.2 mg/dL
  IP: 7.3 mg/dL
  K: 4.4 meq/L
  LDH: 184.4 IU/L
  Na: 142 meq/L
  PL: 149.2 mg/dL
  RALB: 3.1 g/dL
  TBIL: 0.004 mg/dL
  TC: 71.4 mg/dL
  TG: 135.4 mg/dL
  TP: 5.9 g/dL
  gamma-GTP: 2.6 IU/L
[4]
  TERMINAL_BW: 378.5 g
  APTT: 24.9 s
  Bas: 0%
  Eos: 1%
  Fbg: 303 mg/dL
  Hb: 14.8 g/dL
  Ht: 42.6%
  Lym: 80.2%
  MCH: 18.9 pg
  MCHC: 34.8%
  MCV: 54.6 fL
  Mono: 1.6%
  Neu: 15%
  PT: 16.2 s
  Plat: 98.8 x10_4/uL
  RBC: 783 x10_4/ul
  Ret: 2.7%
  WBC: 113.3 x10_2/uL
  KIDNEY_L: 1.4 g
  KIDNEY_R: 1.4 g
  KIDNEY_TOTAL: 2.8 g
  LIVER: 15.4 g
  A/G: 1
  ALP: 1140.2 IU/L
  ALT: 38.6 IU/L
  AST: 64.8 IU/L
  BUN: 18.2 mg/dL
  CRE: 0.2 mg/dL
  Ca: 10.3 mg/dL
  Cl: 106.4 meq/L
  DBIL: 0 mg/dL
  GLC: 204.6 mg/dL
  IP: 6.5 mg/dL
  K: 4.1 meq/L
  LDH: 132.2 IU/L
  Na: 142.4 meq/L
  PL: 140.6 mg/dL
  RALB: 3.1 g/dL
  TBIL: 0.01 mg/dL
  TC: 65 mg/dL
  TG: 145.6 mg/dL
  TP: 6.1 g/dL
  gamma-GTP: 2.8 IU/L
[5]
  TERMINAL_BW: 242.7 g
  APTT: 22.4 s
  Bas: 0%
  Eos: 1%
  Fbg: 305.4 mg/dL
  Hb: 13.4 g/dL
  Ht: 39.6%
  Lym: 76.6%
  MCH: 21.2 pg
  MCHC: 33.8%
  MCV: 62.6 fL
  Mono: 3.2%
  Neu: 18%
  PT: 15.5 s
  Plat: 119.5 x10_4/uL
  RBC: 632.4 x10_4/ul
  Ret: 5.9%
  WBC: 125.2 x10_2/uL
  KIDNEY_L: 1.1 g
  KIDNEY_R: 1.1 g
  KIDNEY_TOTAL: 2.1 g
  LIVER: 10.9 g
  A/G: 1.3
  ALP: 1574.4 IU/L
  ALT: 45.2 IU/L
  AST: 71.8 IU/L
  BUN: 15.4 mg/dL
  CRE: 0.2 mg/dL
  Ca: 10.6 mg/dL
  Cl: 106.8 meq/L
  DBIL: 0 mg/dL
  GLC: 194.8 mg/dL
  IP: 7.4 mg/dL
  K: 4.4 meq/L
  LDH: 167.2 IU/L
  Na: 142.4 meq/L
  PL: 132.6 mg/dL
  RALB: 3 g/dL
  TBIL: 0.004 mg/dL
  TC: 70 mg/dL
  TG: 97 mg/dL
  TP: 5.5 g/dL
  gamma-GTP: 1.6 IU/L
[6]
  TERMINAL_BW: 271.5 g
  APTT: 24 s
  Bas: 0%
  Eos: 1%
  Fbg: 312.6 mg/dL
  Hb: 14.2 g/dL
  Ht: 41.1%
  Lym: 80%
  MCH: 20.9 pg
  MCHC: 34.5%
  MCV: 60.5 fL
  Mono: 2.6%
  Neu: 14.4%
  PT: 15.4 s
  Plat: 111.8 x10_4/uL
  RBC: 679 x10_4/ul
  Ret: 5.3%
  WBC: 121.9 x10_2/uL
  KIDNEY_L: 1.1 g
  KIDNEY_R: 1.2 g
  KIDNEY_TOTAL: 2.3 g
  LIVER: 12.4 g
  A/G: 1.1
  ALP: 1498.6 IU/L
  ALT: 40 IU/L
  AST: 68.2 IU/L
  BUN: 19.2 mg/dL
  CRE: 0.2 mg/dL
  Ca: 10.3 mg/dL
  Cl: 106.2 meq/L
  DBIL: 0 mg/dL
  GLC: 185.4 mg/dL
  IP: 7.3 mg/dL
  K: 4.2 meq/L
  LDH: 184.6 IU/L
  Na: 142.2 meq/L
  PL: 150 mg/dL
  RALB: 3 g/dL
  TBIL: 0.004 mg/dL
  TC: 77.2 mg/dL
  TG: 106.2 mg/dL
  TP: 5.7 g/dL
  gamma-GTP: 1.8 IU/L
[7]
  TERMINAL_BW: 324.6 g
  APTT: 24.1 s
  Bas: 0%
  Eos: 1%
  Fbg: 333.4 mg/dL
  Hb: 14.4 g/dL
  Ht: 42.7%
  Lym: 80%
  MCH: 19.9 pg
  MCHC: 33.7%
  MCV: 59 fL
  Mono: 2.4%
  Neu: 14.6%
  PT: 15.3 s
  Plat: 110.9 x10_4/uL
  RBC: 724.8 x10_4/ul
  Ret: 4.9%
  WBC: 110 x10_2/uL
  KIDNEY_L: 1.3 g
  KIDNEY_R: 1.3 g
  KIDNEY_TOTAL: 2.6 g
  LIVER: 14.3 g
  A/G: 1.2
  ALP: 1256.2 IU/L
  ALT: 37 IU/L
  AST: 64 IU/L
  BUN: 17.8 mg/dL
  CRE: 0.2 mg/dL
  Ca: 10.3 mg/dL
  Cl: 106.4 meq/L
  DBIL: 0 mg/dL
  GLC: 177.6 mg/dL
  IP: 7.4 mg/dL
  K: 4.2 meq/L
  LDH: 140.8 IU/L
  Na: 141.8 meq/L
  PL: 152.2 mg/dL
  RALB: 3.1 g/dL
  TBIL: 0.008 mg/dL
  TC: 82.4 mg/dL
  TG: 92.4 mg/dL
  TP: 5.8 g/dL
  gamma-GTP: 2.6 IU/L
[8]
  TERMINAL_BW: 357.5 g
  APTT: 26.7 s
  Bas: 0%
  Eos: 1%
  Fbg: 333.2 mg/dL
  Hb: 15.4 g/dL
  Ht: 44.6%
  Lym: 83.6%
  MCH: 18.7 pg
  MCHC: 34.4%
  MCV: 54.4 fL
  Mono: 1.6%
  Neu: 12.8%
  PT: 15.8 s
  Plat: 108.7 x10_4/uL
  RBC: 820.8 x10_4/ul
  Ret: 2.5%
  WBC: 112.5 x10_2/uL
  KIDNEY_L: 1.3 g
  KIDNEY_R: 1.4 g
  KIDNEY_TOTAL: 2.8 g
  LIVER: 13.8 g
  A/G: 1.1
  ALP: 1031.2 IU/L
  ALT: 39.8 IU/L
  AST: 68.2 IU/L
  BUN: 16.6 mg/dL
  CRE: 0.2 mg/dL
  Ca: 10.1 mg/dL
  Cl: 107 meq/L
  DBIL: 0 mg/dL
  GLC: 192.2 mg/dL
  IP: 6.2 mg/dL
  K: 3.8 meq/L
  LDH: 134.6 IU/L
  Na: 143 meq/L
  PL: 137.6 mg/dL
  RALB: 3.2 g/dL
  TBIL: 0.016 mg/dL
  TC: 73.6 mg/dL
  TG: 97.6 mg/dL
  TP: 6.1 g/dL
  gamma-GTP: 2 IU/L
